Assay results reported in ChEMBL document CHEMBL1201862, “PubChem BioAssay data set” (2004).
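96-well plates; 48 h exposure; 5 concentrations. Endpoints by linear interpolation between flanking doses. Not reached: highest tested concentration assigned. GI50 is the concentration that inhibits growth by half.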 The source made the active and inactive calls. No stated cut-off is given here; in the data, active = GI50 up to about 1.1 µM and inactive = higher.

Experiments:
Assay in all cases: inhibition of tumour cell growth, NCI panel, 48 h
KM12 = test system: KM12
M14 = test system: M14
HCC 2998 = test system: HCC 2998
K562 = test system: K562
PC-3 = test system: PC-3
SR = test system: SR
EKVX = test system: EKVX
MOLT-4 = test system: MOLT-4
OVCAR-5 = test system: OVCAR-5
HCT-116 = test system: HCT-116
NCI/ADR-RES = test system: NCI/ADR-RES
T47D = test system: T47D
SK-OV-3 = test system: SK-OV-3
BT-549 = test system: BT-549
NCI-H522 = test system: NCI-H522
ACHN = test system: ACHN
SNB-75 = test system: SNB-75
RXF 393 = test system: RXF 393
RPMI-8226 = test system: RPMI-8226
HCT-15 = test system: HCT-15

SMILES	GI50 (KM12)	GI50 (M14)	GI50 (HCC 2998)	GI50 (K562)	GI50 (PC-3)	GI50 (SR)	GI50 (EKVX)	GI50 (MOLT-4)	GI50 (OVCAR-5)	GI50 (HCT-116)	GI50 (NCI/ADR-RES)	GI50 (T47D)	GI50 (SK-OV-3)	GI50 (BT-549)	GI50 (NCI-H522)	GI50 (ACHN)	GI50 (SNB-75)	GI50 (RXF 393)	GI50 (RPMI-8226)	GI50 (HCT-15) [µM]
C=C1C(=O)O[C@@H]2C[C@@]3(C)CCC[C@H](C)C3=C[C@H]12 [HELENINE]	12 µM (inactive)	3.08 µM (inactive)	15.7 µM (inactive)	3.02 µM (inactive)	11.6 µM (inactive)	1.19 µM (inactive)	15 µM (inactive)	1.62 µM (inactive)	17.5 µM (inactive)	4.45 µM (inactive)	7.74 µM (inactive)	2.64 µM (inactive)	22 µM (inactive)	3.62 µM (inactive)	3.18 µM (inactive)	10 µM (inactive)	3.46 µM (inactive)	6.12 µM (inactive)	1.76 µM (inactive)	4.3
O=c1cnn(C2OC(C(O)CO)C(O)C2O)c(=O)[nH]1 (stereo not drawn)	> 100 µM (inactive)	> 100 µM (inactive)	> 100 µM (inactive)	> 100 µM (inactive)	> 100 µM (inactive)	> 100 µM (inactive)	> 100 µM (inactive)	> 100 µM (inactive)	> 100 µM (inactive)	> 100 µM (inactive)	> 100 µM (inactive)	> 100 µM (inactive)	> 100 µM (inactive)	> 100 µM (inactive)	> 100 µM (inactive)	> 100 µM (inactive)	> 100 µM (inactive)	> 100 µM (inactive)	> 100 µM (inactive)	> 100
NCc1ccccc1.O=C(O)NCc1ccccc1	26.2 µM (inactive)	33.9 µM (inactive)	22.5 µM (inactive)	24.3 µM (inactive)	20.8 µM (inactive)	0.682 µM (active)	30.6 µM (inactive)	18.8 µM (inactive)	30.1 µM (inactive)	25.1 µM (inactive)	26.9 µM (inactive)	23.9 µM (inactive)	37.5 µM (inactive)	29.5 µM (inactive)	21.8 µM (inactive)	35.9 µM (inactive)	27.4 µM (inactive)	38.5 µM (inactive)	12.6 µM (inactive)	30.8
COC(=O)C1(CCC(=O)N(C)c2ccccc2)NNC2C(=O)N(c3ccccc3)C(=O)C21 (stereo not drawn)	> 10 µM (inactive)	> 10 µM (inactive)	> 10 µM (inactive)		> 10 µM (inactive)	> 10 µM (inactive)	> 10 µM (inactive)		> 10 µM (inactive)	> 10 µM (inactive)	> 10 µM (inactive)	> 10 µM (inactive)	> 10 µM (inactive)	> 10 µM (inactive)	> 10 µM (inactive)	> 10 µM (inactive)	> 10 µM (inactive)	> 10 µM (inactive)	> 10 µM (inactive)	> 10
O=C1/C(=C2/C(=O)N(c3ccccc3)c3ccccc32)Nc2ccccc21	> 100 µM (inactive)	38.1 µM (inactive)	32.3 µM (inactive)	42.2 µM (inactive)	26.7 µM (inactive)	61.2 µM (inactive)	24.2 µM (inactive)	35.2 µM (inactive)	51.1 µM (inactive)	36.6 µM (inactive)	> 100 µM (inactive)	0.571 µM (active)	43.6 µM (inactive)	45 µM (inactive)	66.5 µM (inactive)	21.2 µM (inactive)	14.9 µM (inactive)	15 µM (inactive)	> 100 µM (inactive)	50
CCCCNC1CCC2(SCCS2)c2[nH]c3ccccc3c21 (stereo not drawn)	6.37 µM (inactive)	17.1 µM (inactive)	18.9 µM (inactive)	10.1 µM (inactive)	7.46 µM (inactive)	3.76 µM (inactive)	37.2 µM (inactive)	3.97 µM (inactive)	59.7 µM (inactive)	7.4 µM (inactive)	21.6 µM (inactive)	2.56 µM (inactive)	49.8 µM (inactive)	23.4 µM (inactive)	8.61 µM (inactive)	27.9 µM (inactive)	43.1 µM (inactive)	21 µM (inactive)	1.77 µM (inactive)	4.78
CN(C)c1ccc(Cc2cc3c(O)ccc(O)c3cc(Cc3ccc(N(C)C)cc3)c2=O)cc1	18.6 µM (inactive)	17.5 µM (inactive)	23 µM (inactive)	2.96 µM (inactive)	15.4 µM (inactive)	3.08 µM (inactive)	19 µM (inactive)	2.92 µM (inactive)	> 43.9 µM (inactive)	11.7 µM (inactive)	27 µM (inactive)	4.09 µM (inactive)	> 100 µM (inactive)	13.7 µM (inactive)	3.73 µM (inactive)	12.5 µM (inactive)	> 55.8 µM (inactive)	9.31 µM (inactive)	6.25 µM (inactive)	21.5
